Measured values as given in PubChem BioAssay AID2060890 (Molecular Pharmacology Branch, DTP, NCI, 2025).

Test system: LG0703-F948-PDC complex spheroid viability
Assay: Anticancer human tumor LG0703-F948-PDC patient-derived lung adenocarcinoma cell line growth inhibition [RAS]
Details: for IC50: curve of first compound; for viability, T/C: stronger effect = lower value
Excerpt: RAS pathway inhibitors in Combinations in Complex Spheroids
A high-throughput screen of multi-cell type tumor spheroids was designed to identify active combinations of RAS pathway inhibitors and targeted small molecules. Complex spheroids include a stromal component modeled by human endothelial cells (HUVEC) and fibroblasts modeled by human mesenchymal stem cells (MSCs). The concentration ranges selected for each drug and investigational agent were based upon clinically achievable concentrations if the clinical Cmax of the agent was known.
Compounds. The drugs and investigational agents: abemaciclib (NSC768073), cobimetinib (NSC768068), divarasib (GDC6063, NSC841802), docetaxel (NSC628503), GDC-1971 (RLY-1971, NSC841576), gemcitabine (NSC613327), inavolisib (NSC800729), ipatasertib (NSC767898), KB-0742 (NSC834161), MRTX-1133 (NSC836407), osimertinib (NSC779217), RMC-4630 (NSC839698), RMC-6236 (NSC851965), RMC-6291 (NSC852671), Ro-3306 (NSC812927), sapanisertib (NSC764658), SN-38 (NSC673596), staurosporine (NSC755774), SY5609 (NSC837396), and tovorafenib (DAY101, NSC766906), were obtained from the National Cancer Institute (NCI) Developmental Therapeutics Program Chemical Repository. The FDA-approved anticancer drug set is available from the NCI Developmental Therapeutics Program. […] The stock solutions were prepared in dimethyl sulfoxide (DMSO, Sigma-Aldrich, St. Louis, MO, cat. D2650) at 800-fold the tested concentration and stored at -70 degrees C prior to their use. All drugs and investigational agents were tested over a range starting from a high concentration at or near the clinical Cmax and decreasing in half-log increments. If the clinical Cmax for an agent had not been determined, the highest concentration tested was 10 microM.
Cell Culture. All cells were maintained in an incubator at 37 degrees C and 5% CO2 with 95% humidity. The PDC lines were cultured according to standard operating procedures established by the NCI PDMR. All PDCs were thawed and cultured in Matrigel-coated flasks prepared with a working solution of 1X Ham's F-12 nutrient mix, without supplementation (Invitrogen, Waltham, MA, cat. 11765054), 100 U/mL penicillin-streptomycin (Invitrogen, cat. 15140122), and 2.5% Matrigel (Corning Inc., Corning, NY, cat. 354248) for the first three passages. The 362531-283-R-J2-PDC and 782815-120-R-J1-PDC lines were cultured in 6C/Colon 1B media, which includes advanced DMEM/F-12 (Thermo Fisher Scientific, cat. 12634028), 10 mM HEPES (Thermo Fisher Scientific, cat. 15630080), 1X GlutaMAX supplement (Thermo Fisher Scientific, cat. 35050061), 0.1 mg/mL primocin (InvivoGen, San Diego, CA, cat. ant-pm-2), 10% defined fetal bovine serum, heat inactivated (HyClone Laboratories Inc., Logan, UT, cat. SH30070.03HI), 50% L-WRN conditioned media (ATCC, cat. CRL-3276), 1.25 mM N-Acetyl-L-cysteine (Sigma-Aldrich, cat. A9165), 10 mM nicotinamide (Sigma-Aldrich, cat. N0636), 1X B-27 supplement (Thermo Fisher Scientific, cat. 17504044), 1X N-2 supplement (Thermo Fisher Scientific, cat. 17502048), 50 ng/mL human EGF (Thermo Fisher Scientific, cat. PHG0311), and 10 microM Y-27632 dihydrochloride (Tocris Bioscience, cat. 1254). The K12877-001-R-J1-PDC line was cultured in 6I media, which includes all 6C/Colon 1B media plus 10 ng/mL human FGF-10 (PeproTech, cat. 100-26), 1 ng/mL human FGF-2 (PeproTech, cat. 100-18B), 1 µM prostaglandin E2 (Tocris Bioscience, cat. 2296), […] hydrocortisone (Sigma-Aldrich, cat. H4001), and […] bovine insulin (Sigma-Aldrich, cat. I6634). The K86415-001-R-J1-PDC line was cultured in 6D media, which includes all 6C/Colon 1B media components minus the L-WRN conditioned media. The 485176-168-R4-J1-PDC was cultured in PANC media, which includes all 6C/Colon 1B media plus 100 ng/mL human FGF-10 (PeproTech, cat. 100-26), 500 nM SB-431542 (Selleckchem, cat. S1067), and 10 nM gastrin (Tocris Bioscience, cat. 3006). […]

[1] = second compound 0.0316 µM, first compound 0.00316 µM
[2] = second compound 0.0316 µM, first compound 0.01 µM
[3] = second compound 0.0316 µM, first compound 0.0316 µM
[4] = second compound 0.0316 µM, first compound 0.1 µM
[5] = second compound 0.1 µM, first compound 0.00316 µM
[6] = second compound 0.1 µM, first compound 0.01 µM
[7] = second compound 0.1 µM, first compound 0.0316 µM
[8] = second compound 0.1 µM, first compound 0.1 µM
[9] = second compound 0.316 µM, first compound 0.00316 µM
[10] = second compound 0.316 µM, first compound 0.01 µM
[11] = second compound 0.316 µM, first compound 0.0316 µM
[12] = second compound 0.316 µM, first compound 0.1 µM
[13] = second compound 1 µM, first compound 0.00316 µM
[14] = second compound 1 µM, first compound 0.01 µM
[15] = second compound 1 µM, first compound 0.0316 µM
[16] = second compound 1 µM, first compound 0.1 µM
[17] = second compound 3.16 µM, first compound 0.00316 µM
[18] = second compound 3.16 µM, first compound 0.01 µM
[19] = second compound 3.16 µM, first compound 0.0316 µM
[20] = second compound 3.16 µM, first compound 0.1 µM
[21] = second compound 10 µM, first compound 0.00316 µM
[22] = second compound 10 µM, first compound 0.01 µM
[23] = second compound 10 µM, first compound 0.0316 µM
[24] = second compound 10 µM, first compound 0.1 µM
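Throughout, for viability, T/C: 100% = DMSO vehicle wells.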

Q: Which results are given for O=C(c1ccc(F)c(F)c1Nc1ccc(I)cc1F)N1CC(O)([C@@H]2CCCCN2)C1 + C#Cc1c(F)ccc2cc(O)cc(-c3ncc4c(N5CC6CCC(C5)N6)nc(OCC56CCCN5CC(F)C6)nc4c3F)c12?
A: IC50 (second compound 0.0316 µM): 68.4 nM; IC50 (second compound 0.1 µM): 62.1 nM; IC50 (second compound 0.316 µM): 32.2 nM; IC50 (second compound 1 µM): 32.8 nM; IC50 (second compound 3.16 µM): 7.71 nM; IC50 (second compound 10 µM): < 3.16 nM; viability, T/C [1]: 103%; viability, T/C [2]: 75.2%; viability, T/C [3]: 60.5%; viability, T/C [4]: 45.4%; viability, T/C (second compound 0.0316 µM, first compound 0.316 µM): 35.6%; viability, T/C (second compound 0.0316 µM, first compound 1 µM): 24.1%; viability, T/C [5]: 91.8%; viability, T/C [6]: 70.2%; viability, T/C [7]: 64%; viability, T/C [8]: 39.4%; viability, T/C (second compound 0.1 µM, first compound 0.316 µM): 34.2%; viability, T/C (second compound 0.1 µM, first compound 1 µM): 21.9%; viability, T/C [9]: 80.5%; viability, T/C [10]: 66.1%; viability, T/C [11]: 53.1%; viability, T/C [12]: 31.6%; viability, T/C (second compound 0.316 µM, first compound 0.316 µM): 28.2%; viability, T/C (second compound 0.316 µM, first compound 1 µM): 22.3%; viability, T/C [13]: 66%; viability, T/C [14]: 54.8%; viability, T/C [15]: 51.5%; viability, T/C [16]: 24.4%; viability, T/C (second compound 1 µM, first compound 0.316 µM): 25.1%; viability, T/C (second compound 1 µM, first compound 1 µM): 19.7%; viability, T/C [17]: 56.8%; viability, T/C [18]: 47.9%; viability, T/C [19]: 33.8%; viability, T/C [20]: 21.4%; viability, T/C (second compound 3.16 µM, first compound 0.316 µM): 22.6%; viability, T/C (second compound 3.16 µM, first compound 1 µM): 16.3%; viability, T/C [21]: 43.9%; viability, T/C [22]: 38.3%; viability, T/C [23]: 18.1%; viability, T/C [24]: 17.3%; viability, T/C (second compound 10 µM, first compound 0.316 µM): 6.81%; viability, T/C (second compound 10 µM, first compound 1 µM): 2.29%

Q: With CC(C)n1nc(-c2ccc3oc(N)nc3c2)c2c(N)ncnc21 + C#Cc1c(F)ccc2cc(O)cc(-c3ncc4c(N5CC6CCC(C5)N6)nc(OCC56CCCN5CC(F)C6)nc4c3F)c12 as the compound, how does the IC50 (second compound 0.0316 µM) read?
A: 4.71 nM

Q: What about the IC50 (second compound 0.1 µM) of the same compound?
A: 3.96 nM

Q: And the IC50 (second compound 0.316 µM)?
A: 3.99 nM

Q: And the IC50 (second compound 1 µM)?
A: 2.13 nM

Q: And the IC50 (second compound 3.16 µM)?
A: 0.608 nM

Q: And the IC50 (second compound 10 µM)?
A: 0.343 nM

Q: What about the viability, T/C (second compound 0.0316 µM, first compound 0.000316 µM) of the same compound?
A: 90.7%

Q: What about the viability, T/C (second compound 0.0316 µM, first compound 0.001 µM) of the same compound?
A: 82.5%

Q: And the viability, T/C [1]?
A: 59.2%

Q: And the viability, T/C [2]?
A: 32%

Q: And the viability, T/C [3]?
A: 18%

Q: What about the viability, T/C [4] of the same compound?
A: 12.3%

Q: What about the viability, T/C (second compound 0.1 µM, first compound 0.000316 µM) of the same compound?
A: 80.7%

Q: And the viability, T/C (second compound 0.1 µM, first compound 0.001 µM)?
A: 85.6%

Q: And the viability, T/C [5]?
A: 47.7%

Q: What about the viability, T/C [6] of the same compound?
A: 34%

Q: And the viability, T/C [7]?
A: 19.7%

Q: What about the viability, T/C [8] of the same compound?
A: 11%

Q: And the viability, T/C (second compound 0.316 µM, first compound 0.000316 µM)?
A: 88.3%

Q: What about the viability, T/C (second compound 0.316 µM, first compound 0.001 µM) of the same compound?
A: 75.3%

Q: What about the viability, T/C [9] of the same compound?
A: 57.6%

Q: And the viability, T/C [10]?
A: 27.1%

Q: What about the viability, T/C [11] of the same compound?
A: 11.2%

Q: What about the viability, T/C [12] of the same compound?
A: 8.26%

Q: And the viability, T/C (second compound 1 µM, first compound 0.000316 µM)?
A: 67.6%

Q: And the viability, T/C (second compound 1 µM, first compound 0.001 µM)?
A: 51%

Q: And the viability, T/C [13]?
A: 50.2%

Q: And the viability, T/C [14]?
A: 21.1%

Q: What about the viability, T/C [15] of the same compound?
A: 9.33%

Q: What about the viability, T/C [16] of the same compound?
A: 5.14%

Q: What about the viability, T/C (second compound 3.16 µM, first compound 0.000316 µM) of the same compound?
A: 58.6%

Q: What about the viability, T/C (second compound 3.16 µM, first compound 0.001 µM) of the same compound?
A: 44.2%

Q: What about the viability, T/C [17] of the same compound?
A: 23.4%

Q: And the viability, T/C [18]?
A: 13.9%

Q: What about the viability, T/C [19] of the same compound?
A: 5.52%

Q: And the viability, T/C [20]?
A: 3.09%

Q: What about the viability, T/C (second compound 10 µM, first compound 0.000316 µM) of the same compound?
A: 50.9%

Q: And the viability, T/C (second compound 10 µM, first compound 0.001 µM)?
A: 37.8%

Q: And the viability, T/C [21]?
A: 16.5%

Q: What about the viability, T/C [22] of the same compound?
A: 4.6%

Q: What about the viability, T/C [23] of the same compound?
A: 2.45%

Q: And the viability, T/C [24]?
A: 0.63%
